Laboratory results taken from publication PMC3628601, “Novel control of lactate dehydrogenase from the freeze tolerant wood frog: role of posttranslational modifications” (PeerJ, 2013).
Values belong to the molecule of their own block, whether it stands above or below them.

Legend:
Format in all cases: biochemical, Lithobates sylvaticus
[1] = test system: T1, muscle LDH, dehydrated (dehydrated LDH); assay: NADH production at […] nm, reverse reaction; settings: pH 8, 22 °C, 50 mM Tris
T1 construct: gene LDHA

[2] = test system: T2, muscle LDH, control (control LDH); assay: NADH production at […] nm, reverse reaction; settings: pH 8, 22 °C, 50 mM Tris
T2 construct: gene LDHA

[3] = test system: T2, muscle LDH, control (control LDH); assay: NADH consumption at […] nm, forward reaction; settings: pH 7, 22 °C, 50 mM Tris, saturating NADH (0.15 mM)
[4] = test system: T1, muscle LDH, dehydrated (dehydrated LDH); assay: NADH consumption at […] nm, forward reaction; settings: pH 7, 22 °C, 50 mM Tris, saturating NADH (0.15 mM)
[5] = test system: T1, muscle LDH, dehydrated (dehydrated LDH); assay: NADH absorbance at […] nm, forward reaction; settings: pH 7.0, 22 °C, 50 mM Tris, saturating NADH (0.15 mM); inhibition by excess substrate
[6] = test system: T2, muscle LDH, control (control LDH); assay: NADH absorbance at […] nm, forward reaction; settings: pH 7.0, 22 °C, 50 mM Tris, saturating NADH (0.15 mM); inhibition by excess substrate

Km ([1]; saturating NAD (1 mM)): 5600 ± 500 µM | Km ([2]; saturating NAD (1 mM)): 11000 ± 640 µM
SMILES: C[C@H](O)C(=O)O [L-lactate]

Km ([1]; saturating L-lactate (22.5 mM)): 640 ± 40 µM | Km ([2]; saturating L-lactate (22.5 mM)): 1380 ± 50 µM
SMILES: NC(=O)c1ccc[n+]([C@@H]2O[C@H](COP(=O)(O)OP(=O)(O)OC[C@H]3O[C@@H](n4cnc5c(N)ncnc54)[C@H](O)[C@@H]3O)[C@@H](O)[C@H]2O)c1 [NAD]

Km [3]: 160 ± 10 µM | Km [4]: 130 ± 10 µM
SMILES: CC(=O)C(=O)O [pyruvate]
Dehydrated [5]: 8.26 ± 0.76 mM | Control [6]: 7.93 ± 0.34 mM
